PubChem BioAssay (NCI)
Several values for one entry are separate records, joined by “and”; a condition that tells them apart may be missing. Equal entries are not always repeated.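 In this assay, cells in 96-well plates receive the compound at five concentrations for 48 hours. Endpoints are linearly interpolated between the surrounding concentrations. The concentration for 50% growth inhibition is given as GI50. Definition used: TGI = concentration required for complete inhibition of growth.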

Tests used:
Experiment in all cases: inhibition of tumour cell growth, NCI panel, 48 h
[1] = test system: OVCAR-3 ovarian
[2] = test system: HT29 colon
[3] = test system: CAKI-1 renal
[4] = test system: RXF 393 renal
[5] = test system: SF-295 CNS
[6] = test system: UACC-257 melanoma
[7] = test system: UACC-62 melanoma
[8] = test system: CCRF-CEM leukemia
[9] = test system: T-47D breast
[10] = test system: SNB-19 CNS

Row | SMILES | GI50 [1] [µM] | TGI [1] [µM] | GI50 [2] | TGI [2] [µM] | GI50 [3] [µM] | TGI [3] [µM] | GI50 [4] [µM] | TGI [4] [µM] | GI50 [5] [µM] | TGI [5] [µM] | GI50 [6] [µM] | TGI [6] [µM] | GI50 [7] [µM] | TGI [7] [µM] | GI50 [8] [µM] | TGI [8] [µM] | GI50 [9] | TGI [9] [µM] | GI50 [10] [µM] | TGI [10] [µM]
1 | COc1cc2c(cc1OC)-c1ncc3cc4c(cc3c1C2)OCO4 | 61.2 | > 100 | > 100 µM | > 100 | 38.5 | > 100 | 50.2 | > 100 | 46.2 | > 100 | 48.4 | > 100 | > 100 | > 100 | 6.36 | 21.4 | 71.2 µM | > 100 | 60 | > 100
2 | O=[As]c1ccc(C(=O)c2ccc(Oc3ccccc3)cc2)cc1 (configuration not stated) | 0.0243 | 0.0608 | 0.0379 µM | 0.154 | 0.0392 | 0.12 | 0.0404 | 0.143 | 0.15 | 0.327 | 0.0431 | 0.171 | 0.059 | 0.185 | 0.0191 | 0.155 | 0.0316 µM | 0.156 | 0.0651 | 0.187
3 | O=C(Nc1cccc(C(F)(F)F)c1)c1cc(Br)cc(Br)c1O |  | 6.14 |  | > 10 |  | 6.6 |  | 9.12 |  | 7.19 |  | 6.93 |  | > 10 |  | > 10 |  | 9.69 |  | > 10
4 | CCOC(=O)Cc1csc(NC(=O)COC(=O)c2ccc(OC)cc2)n1 | 22.4 | 46.3 | 30.8 µM | > 80.1 | > 100 | > 100 | > 70.8 | > 100 | > 100 | > 100 | > 100 | > 100 | > 100 | > 100 | 11.1 | 31.5 | > 100 µM | > 100 | > 100 | > 100
5 | Oc1ccc(Cl)cc1-c1cc(-c2ccc(F)cc2)n[nH]1 | 1.39 | 3.53 | 3.99 µM | 22.2 | 1.77 | 9.14 | 2.83 | 7.82 | 2.16 | 5.24 | 2.96 | 21 | 2.42 | 9.5 | 0.452 | 4.12 | 1.6 µM | 38.8 | 2.27 | 8.27
6 | O=C(Nc1cc(-c2cccnc2)nc(NCCCN2CCOCC2)n1)c1cc(Br)cc(C(F)(F)F)c1 | 3.7 | 12.8 | 2.12 µM | 4.95 | 2.53 | 10.7 | 1.8 | 3.61 | 1.94 | 3.93 | 2.1 | 3.78 | 1.94 | 4.38 | 3.54 | 12.9 | 3.72 µM | 16.1 | 2.5 | 5.75
7 | O=C1c2ccccc2-c2c1c1ccccc1c(=O)n2-c1ccccc1 |  | 34 |  | > 100 |  | 34.7 |  | 15 |  | 23.6 |  | > 100 |  | > 54.2 |  | > 100 |  | 46.7 |  | 20.4
8 | N#Cc1c2c(c(-c3cccs3)n(C3OC(CO)C(O)C(O)C3O)c1=S)CCc1ccccc1-2 (configuration not stated) |  | > 100 | 6.27 µM and > 20.9 µM | > 100 |  | > 100 |  | > 100 |  | > 100 |  | > 100 |  | > 100 |  | > 100 | > 25.1 µM and 7.83 µM | > 100 |  | > 100
9 | COc1cccc(C2=C(c3cn(C)c4cccc(OC)c34)C(=O)NC2=O)c1 | 7.74 | > 25 | 5.34 µM | > 25 | 9.79 | > 25 | 5.03 | > 19 | 7.05 | > 25 | > 15.9 | > 25 | 7.17 | > 25 | 10.4 | > 25 | 13.7 µM | > 25 | > 25 | > 25
10 | Oc1c(CN2CCOCC2)cc(COCc2ccccc2)c2cccnc12 | 2.49 | > 100 | 19.8 µM | 65.4 | 0.555 | > 100 | 3.25 | 72.7 | 3.68 | 30.6 | 2.58 | 7.84 | 2.24 | 8.91 | 0.494 | > 100 | 2.63 µM | > 100 | 4.28 | > 100
11 | Cc1sc2ncn(Cc3ccc(Cl)c(Cl)c3)c(=O)c2c1C | 8.04 | 38.3 | 77.7 µM | > 100 | 3.47 | 32.9 | > 100 | > 100 | 3.85 | 22.7 | 78.8 | > 100 | 13.2 | > 100 | 27.7 | > 100 | 24.8 µM | > 100 | 38 | > 100
12 | O=C(Nc1ccc(I)cc1F)c1cc(I)ccc1O | 0.714 | > 100 | 3.71 µM | > 100 | 0.492 | 4.11 | 0.779 | 3.24 | 0.8 | 2.14 | 0.73 | 2.6 | 0.312 | 1.22 | 0.943 | > 37.6 | 0.649 µM | 2.94 | 0.664 | > 100
13 | ClCC#CCSc1ncnc2c1ncn2CC#CCCl | 1.51 | 2.95 | 1.65 µM | 3.85 | 1.15 | 3.74 | 1.01 | 2.29 | 2.05 | 4.59 | 1.36 | 3.49 | 1.17 | 2.66 | 1.8 | 15.2 | 1.33 µM | 2.68 | 1.64 | 3.61
